Assay results taken from the supplement of paper PMC10307832.

Experiments:
Experiment in all cases: relative viability (nuclei count vs DMSO), 5 days (fraction); higher = more cells survive
[1] = compound: C1=CC2=C(C=C(C(=C2N=C1)O)N=NC3=CC4=C(C=C3)C=C(C=C4)S(=O)(=O)O)S(=O)(=O)O + Cc1nc(Nc2ncc(C(=O)Nc3c(C)cccc3Cl)s2)cc(N2CCN(CCO)CC2)n1 [Dasatinib] (partner 0.075 µM)
Summary of the method: (§1)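 Lung cancer cell lines in 1536-well plates were dosed by pin tool the day after seeding, either with one drug alone or with a fixed anchor-drug dose plus five library-drug doses (not always all listed) in √10 steps. After 5 days, cells were fixed and their nuclei stained in one step (final 0.05% Triton X-100, 1% formaldehyde, 1 ug/ml Hoechst), then counted on 4× images. Relative viability is the nuclei count in treated wells divided by that in vehicle wells. Values are medians of duplicate plates.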

AT-7519 + Trametinib = compound: O=C(NC1CCNCC1)c1n[nH]cc1NC(=O)c1c(Cl)cccc1Cl [AT-7519] + CC(=O)Nc1cccc(-n2c(=O)n(C3CC3)c(=O)c3c(Nc4ccc(I)cc4F)n(C)c(=O)c(C)c32)c1 [Trametinib] (partner 0.02 µM)
Summary of the method: as §1

AT-7519 + Foretinib = compound: O=C(NC1CCNCC1)c1n[nH]cc1NC(=O)c1c(Cl)cccc1Cl [AT-7519] + COc1cc2c(Oc3ccc(NC(=O)C4(C(=O)Nc5ccc(F)cc5)CC4)cc3F)ccnc2cc1OCCCN1CCOCC1 [Foretinib] (partner 0.25 µM)
Summary of the method: as §1

AT-7519 + Pictilisib = compound: O=C(NC1CCNCC1)c1n[nH]cc1NC(=O)c1c(Cl)cccc1Cl [AT-7519] + CS(=O)(=O)N1CCN(Cc2cc3nc(-c4cccc5[nH]ncc45)nc(N4CCOCC4)c3s2)CC1 [Pictilisib] (partner 1 µM)
Summary of the method: as §1

Cell Line	relative viability ([1]; first compound 0.08 µM)	relative viability ([1]; first compound 0.253 µM)	relative viability ([1]; first compound 0.8 µM)	relative viability ([1]; first compound 2.53 µM)	relative viability ([1]; first compound 8 µM)	relative viability (AT-7519 + Trametinib; first compound 0.01 µM)	relative viability (AT-7519 + Trametinib; first compound 0.03162 µM)	relative viability (AT-7519 + Trametinib; first compound 0.3162 µM)	relative viability (AT-7519 + Trametinib; first compound 1 µM)	relative viability (AT-7519 + Foretinib; first compound 0.01 µM)	relative viability (AT-7519 + Foretinib; first compound 0.03162 µM)	relative viability (AT-7519 + Foretinib; first compound 0.3162 µM)	relative viability (AT-7519 + Foretinib; first compound 1 µM)	relative viability (AT-7519 + Pictilisib; first compound 0.01 µM)	relative viability (AT-7519 + Pictilisib; first compound 0.03162 µM)	relative viability (AT-7519 + Pictilisib; first compound 0.3162 µM)	relative viability (AT-7519 + Pictilisib; first compound 1 µM)
NCI-H1993	0.579	0.648	0.633	0.594	0.566	0.445	0.496	0.474	0.453	0.786	0.842	0.809	0.594	0.783	0.76	0.929	0.606
RERF-LC-KJ	0.803	0.965	0.943	0.958	0.888	0.865	0.864	0.758	0.423	0.939	0.813	0.879	0.921	0.514	0.452	0.594	0.136
NCI-H23	0.922	0.877	0.702	0.95	0.927	0.338	0.355	0.33	0.164	0.928	0.981	0.887	0.461	0.534	0.438	0.428	0.123
HCC-366	0.765	0.661	0.654	0.649	0.637	0.323	0.281	0.316	0.17	0.994	0.896	0.941	0.717	0.0989	0.152	0.111	0.123
EMC-BAC-2	0.324	0.401	0.336	0.36	0.367	0.92	0.835	0.845	0.376	0.977	0.998	1.02	0.794	0.56	0.524	0.506	0.538
NCI-H2405	0.146	0.226	0.208	0.201	0.219	0.664	0.643	0.61	0.299	1.04	1.11	1.01	0.628	0.461	0.424	0.438	0.293
NCI-H358	0.149	0.183	0.153	0.184	0.168	0.127	0.13	0.253	0.0967	0.646	0.496	0.492	0.194	0.294	0.308	0.239	0.212
NCI-H1944	0.222	0.244	0.201	0.212	0.206	0.423	0.481	0.362	0.302	0.899	0.855	0.84	0.662	0.356	0.334	0.323	0.339
EPLC-272H	0.408	0.313	0.333	0.366	0.418	0.309	0.312	0.275	0.22	0.753	0.512	0.622	0.28	0.384	0.311	0.249	0.17
NCI-H1915	0.311	0.321	0.29	0.316	0.314	0.58	0.304	0.316	0.118	1.07	1.1	1.07	0.807	0.987	0.943	0.755	0.417
NCI-H596	0.651	0.685	0.554	0.727	0.703	0.86	0.811	0.662	0.662	0.922	0.834	0.897	0.731	0.389	0.433	0.414	0.347
NCI-H322M	0.252	0.251	0.234	0.27	0.274	0.531	0.444	0.539	0.525	1.01	0.932	0.511	0.456	0.565	0.495	0.473	0.439
NCI-H2228	0.639	0.469	0.464	0.514	0.49	0.441	0.426	0.421	0.247	0.833	0.789	0.814	0.595	0.357	0.371	0.473	0.149
NCI-H647	0.212	0.169	0.151	0.143	0.194	0.439	0.342	0.475	0.159	1.27	1.21	0.985	0.889	0.452	0.531	0.483	0.356
SK-MES-1	0.43	0.35	0.353	0.531	0.477	0.535	0.607	0.537	0.461	0.907	1.09	0.735	0.919	0.457	0.272	0.328	0.276
NCI-H2170	0.636	0.574	0.659	0.633	0.55	0.994	0.868	0.91	0.708	1.09	1.03	1.04	0.958	0.305	0.29	0.234	0.255
NCI-H2085	0.277	0.253	0.254	0.208	0.291	0.468	0.585	0.595	0.367	0.932	0.84	0.888	0.874	0.44	0.506	0.553	0.382
SW 1573	0.545	0.572	0.417	0.513	0.273	0.603	0.494	0.37	0.109	0.797	0.918	0.722	0.543	0.576	0.463	0.386	0.196
NCI-H727	0.454	0.39	0.352	0.412	0.345	0.34	0.414	0.37	0.384	1.14	0.691	0.769	0.297	0.354	0.263	0.197	0.204

Cell Line	relative viability ([1]; first compound 0.08 µM)	relative viability ([1]; first compound 0.253 µM)	relative viability ([1]; first compound 0.8 µM)	relative viability ([1]; first compound 2.53 µM)	relative viability ([1]; first compound 8 µM)	relative viability (AT-7519 + Trametinib; first compound 0.01 µM)	relative viability (AT-7519 + Trametinib; first compound 0.03162 µM)	relative viability (AT-7519 + Trametinib; first compound 0.3162 µM)	relative viability (AT-7519 + Trametinib; first compound 1 µM)	relative viability (AT-7519 + Foretinib; first compound 0.01 µM)	relative viability (AT-7519 + Foretinib; first compound 0.03162 µM)	relative viability (AT-7519 + Foretinib; first compound 0.3162 µM)	relative viability (AT-7519 + Foretinib; first compound 1 µM)	relative viability (AT-7519 + Pictilisib; first compound 0.01 µM)	relative viability (AT-7519 + Pictilisib; first compound 0.03162 µM)	relative viability (AT-7519 + Pictilisib; first compound 0.3162 µM)	relative viability (AT-7519 + Pictilisib; first compound 1 µM)
NCI-H441	0.574	0.587	0.568	0.59	0.679	0.429	0.474	0.32	0.23	1.04	1.01	0.949	0.63	0.448	0.452	0.468	0.161
LOU-NH91	0.579	0.585	0.53	0.597	0.508	0.805	0.774	0.792	0.726	0.876	0.943	0.976	0.821	0.551	0.536	0.516	0.479
NCI-H3122	0.954	0.741	0.716	0.882	0.0807	0.255	0.213	0.225	0.148	1.07	0.968	0.983	0.465	0.625	0.603	0.645	0.102
NCI-H460	0.515	0.536	0.492	0.489	0.522	0.193	0.155	0.129	0.0266	1.05	0.821	1.05	0.233	0.346	0.446	0.37	0.286
NCI-H650	0.412	0.433	0.496	0.462	0.342	1.02	0.924	1.04	0.348	1.04	0.923	1.01	1.08	0.868	0.851	0.84	0.672
NCI-H661	0.938	0.877	0.903	0.93	0.817	0.549	0.565	0.508	0.203	1.05	0.875	1.05	0.468	0.398	0.386	0.399	0.289
NCI-H1793	0.372	0.403	0.364	0.367	0.372	0.492	0.489	0.433	0.218	0.679	0.646	0.726	0.488	0.357	0.255	0.31	0.161
NCI-H1734	0.583	0.346	0.428	0.44	0.48	0.644	0.629	0.618	0.31	0.897	0.809	0.718	0.429	0.552	0.452	0.439	0.252
LXF-289	0.196	0.215	0.205	0.208	0.229	0.7	0.638	0.657	0.493	0.964	1	0.943	0.877	0.819	0.838	0.787	0.746
H3255	0.346	0.375	0.297	0.34	0.477	0.53	0.546	0.715	0.574	0.901	0.876	0.906	0.794	0.537	0.502	0.441	0.313
201T	0.627	0.56	0.584	0.619	0.677	0.731	0.798	0.684	0.64	1.2	1.05		0.809	0.684	0.712	0.7	0.77
NCI-H2126	0.711	0.645	0.64	0.713	0.693	0.583	0.594	0.554	0.44	1.08	1.24	0.838	1.12	0.571	0.516	0.464	0.433
HOP-62	0.69	0.657	0.676	0.588	0.653	0.344	0.347	0.401	0.176	1.11	1.16	1.04	0.977	0.817	0.742	0.486	0.293
CAL-12T	0.325	0.361	0.383	0.518	0.434	0.403	0.289	0.217	0.131	1.17	1.19	0.814	0.178		0.514	0.214	0.193
NCI-H520	0.185	0.206	0.204	0.157	0.176	0.741	0.494	0.673	0.229	0.922	0.624	0.718	0.593	0.344	0.296	0.249	0.171
NCI-H1755	0.483	0.475	0.455	0.433	0.536	0.834	0.768	0.787	0.469	0.947	0.944	0.813	0.878	0.444	0.379	0.346	0.297
NCI-H2023	0.689	0.622	0.558	0.648	0.541	0.541	0.566	0.437	0.131	0.962	0.914	1.05	0.459	0.25	0.24	0.207	0.172
NCI-H2009	0.261	0.275	0.288	0.313	0.283	0.306	0.287	0.25	0.181	1.33	1.18	1.27	0.686	0.914	0.763	0.654	0.247
